From the supplement of paper PMC10307832

Key:
Assay in all cases: relative viability (nuclei count vs DMSO), 5 days (fraction); higher = more cells survive
Midostaurin + Luminespib = compound: CO[C@@H]1[C@H](N(C)C(=O)c2ccccc2)C[C@H]2O[C@]1(C)n1c3ccccc3c3c4c(c5c6ccccc6n2c5c31)C(=O)NC4 [Midostaurin] + CCNC(=O)c1noc(-c2cc(C(C)C)c(O)cc2O)c1-c1ccc(CN2CCOCC2)cc1 [Luminespib] (partner 0.01 µM)
In short: (§1)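 One day after seeding in 1536-well plates, lung cancer cell lines were dosed by pin tool. Dosing was either single-drug or a fixed anchor-drug dose plus five library-drug doses (not always all listed) in √10 steps. After 5 days, nuclei were stained in one fix-and-stain step and counted on 4× images, and relative viability is the nuclei count of treated wells over that of vehicle wells, given as the median of duplicate plates.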

[1] = compound: COc1cc(-c2nn([C@H]3CC[C@H](N4CCN(C(C)=O)CC4)CC3)c3ncnc(N)c23)ccc1NC(=O)c1cc2ccccc2n1C + CC(C)C[C@H](NC(=O)[C@H](Cc1ccccc1)NC(=O)c1cnccn1)B(O)O [Bortezomib] (partner 0.002 µM)
In short: as §1

[2] = compound: COc1cc(-c2nn([C@H]3CC[C@H](N4CCN(C(C)=O)CC4)CC3)c3ncnc(N)c23)ccc1NC(=O)c1cc2ccccc2n1C + C[C@@H](Oc1cc(-c2cnn(C3CCNCC3)c2)cnc1N)c1c(Cl)ccc(F)c1Cl [Crizotinib] (partner 1 µM)
In short: as §1

[3] = compound: COc1cc(-c2nn([C@H]3CC[C@H](N4CCN(C(C)=O)CC4)CC3)c3ncnc(N)c23)ccc1NC(=O)c1cc2ccccc2n1C + Nc1ncn([C@H]2C[C@H](O)[C@@H](CO)O2)c(=O)n1 [Decitabine] (partner 2 µM)
In short: as §1

[4] = compound: COc1cc(-c2nn([C@H]3CC[C@H](N4CCN(C(C)=O)CC4)CC3)c3ncnc(N)c23)ccc1NC(=O)c1cc2ccccc2n1C + O=C(c1cc(Cc2n[nH]c(=O)c3ccccc23)ccc1F)N1CCN(C(=O)C2CC2)CC1 [Olaparib] (partner 8 µM)
In short: as §1

Q: Which relative viability (Midostaurin + Luminespib; first compound 0.01 µM) does the source give for UMC-11 here?
A: Its relative viability is 1.02.

Q: What about the relative viability (Midostaurin + Luminespib; first compound 0.03162 µM) of the same cell line?
A: Its relative viability is 0.849.

Q: And the relative viability (Midostaurin + Luminespib; first compound 0.1 µM)?
A: Its relative viability is 0.932.

Q: What about the relative viability (Midostaurin + Luminespib; first compound 0.3162 µM) of the same cell line?
A: The relative viability was 0.463.

Q: What about the relative viability ([1]; first compound 0.0128 µM) of the same cell line?
A: The relative viability was 0.728.

Q: What about the relative viability ([1]; first compound 0.04048 µM) of the same cell line?
A: The relative viability was 0.687.

Q: What about the relative viability ([1]; first compound 0.128 µM) of the same cell line?
A: The relative viability was 0.668.

Q: What about the relative viability ([1]; first compound 1.28 µM) of the same cell line?
A: The relative viability was 0.655.

Q: What about the relative viability ([2]; first compound 0.0128 µM) of the same cell line?
A: The relative viability was 0.638.

Q: And the relative viability ([2]; first compound 0.04048 µM)?
A: Its relative viability is 0.627.

Q: What about the relative viability ([2]; first compound 0.128 µM) of the same cell line?
A: Its relative viability is 0.64.

Q: And the relative viability ([2]; first compound 1.28 µM)?
A: Its relative viability is 0.479.

Q: What about the relative viability ([3]; first compound 0.0128 µM) of the same cell line?
A: Its relative viability is 0.706.

Q: And the relative viability ([3]; first compound 0.04048 µM)?
A: The relative viability was 0.606.

Q: What about the relative viability ([3]; first compound 0.128 µM) of the same cell line?
A: Its relative viability is 0.745.

Q: And the relative viability ([3]; first compound 1.28 µM)?
A: Its relative viability is 0.543.

Q: What about the relative viability ([4]; first compound 0.0128 µM) of the same cell line?
A: The relative viability was 0.388.

Q: And the relative viability ([4]; first compound 0.04048 µM)?
A: The relative viability was 0.464.

Q: What about the relative viability ([4]; first compound 0.128 µM) of the same cell line?
A: The relative viability was 0.342.

Q: What about the relative viability ([4]; first compound 1.28 µM) of the same cell line?
A: The relative viability was 0.362.
